Assay results published in US20260273004A1, “AGENT AND METHOD FOR MAINTAINING OR IMPROVING CEREBRAL FUNCTION USING CRUDE DRUG” (CEREBRO PHARMA INC., priority 2023, published 2026).

Legend:
[1] = system: mouse models of AD and PD; settings: oral administration, Non-Patent Literature 18, 19; cited from earlier work
[2] = system: BDNF and nerve growth factor (NGF); settings: oral administration; rat model of cerebral ischemia/reperfusion; Non-Patent Literature 20; cited from earlier work
Tau784 mice = assay: Morris water maze test in Tau784 mice; type: in vivo, mouse; settings: Tau784 mice aged 8-10 months; orally, one month; mixture of catechin 0.087 μg, chlorogenic acid 0.036 μg, rutin 0.123 μg, or catechin alone 0.087 μg; FIG. 24
Source text: The Tau784 mice are FTD models that express both three-repeat and four-repeat human tau at an adult age (with four-repeat human tau being dominantly expressed) due to the presence of a tau intron mutation (Non-Patent Literature 25: Umeda et al., Am. J. Pathol., (2013), 183[1]:211-25; and Non-Patent Literature 26: Umeda et al., Ann. Clin. Transl. Neurol., (2015), 2[3]:241-55).
To investigate the effect of mãmaki leaf hot water extract, the extract powder was suspended in water at concentrations of 3.33, 0.33, and 0.10 mg/mL by sonication. 300 μL of each suspension (containing 1,000, 100, and 30 μg of powder) was orally administered to male and female Tau784 mice five days a week (Monday to Friday) for one month. As a control, the same amount of water was administered to age-matched Tg and non-Tg littermates. For APP23, Huα-Syn (A53T), and C9-500 mice, a 0.33 mg/mL suspension (100 μg of powder/[…]) was orally administered to male and female mice for one month. […]
The spatial reference memory of each mouse was evaluated using the Morris water maze test (Non-Patent Literature 34: Kelley Bromley-Brits et al., J. Vis. Exp., (2011), 53e2920). […] Each mouse was placed in the pool and allowed to swim for 60 seconds, and the time taken to reach the platform was measured (referred to as escape latency). […]

Row | Molecule | memory and motor function [1] | expression of BDNF and nerve growth factor (NGF) [2] | memory (Morris water maze test) (Tau784 mice)
1 | O=C(/C=C/c1ccc(O)c(O)c1)O[C@@H]1C[C@](O)(C(=O)O)C[C@@H](O)[C@H]1O [Chlorogenic acid, 5-O-caffeoylquinic acid] | improves their memory and motor function | promote the expression of BDNF and nerve growth factor (NGF) | 
2 | catechin |  |  | showed a weaker effect than the polyphenol mixture
